Experimental data published in PubChem BioAssay (NCI).
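Exposure lasted 48 hours, with cells grown in 96-well plates and compounds tested at five concentrations. GI50 marks 50% less growth. TGI marks complete inhibition of growth.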

How the values were obtained:
Assay in all cases: growth of human tumour cells (NCI), 48 h
[1] = tested on: CAKI-1 renal
[2] = tested on: ACHN renal
[3] = tested on: A549 NSCLC
[4] = tested on: RPMI-8226 leukemia
[5] = tested on: SW-620 colon
[6] = tested on: BT-549 breast
[7] = tested on: HCT-116 colon
[8] = tested on: MALME-3M melanoma
[9] = tested on: MCF7 breast
[10] = tested on: OVCAR-3 ovarian
[11] = tested on: PC-3 prostate
[12] = tested on: SF-539 CNS
[13] = tested on: KM12 colon
[14] = tested on: RXF 393 renal
[15] = tested on: A498 renal
[16] = tested on: SK-MEL-28 melanoma
[17] = tested on: UACC-257 melanoma
[18] = tested on: UACC-62 melanoma
[19] = tested on: M14 melanoma
[20] = tested on: SF-295 CNS
[21] = tested on: HOP-62 NSCLC
[22] = tested on: HS 578T breast
[23] = tested on: MDA-MB-231 breast
[24] = tested on: MDA-MB-435
[25] = tested on: K-562 leukemia
[26] = tested on: OVCAR-4 ovarian
[27] = tested on: U251 CNS
[28] = tested on: OVCAR-8 ovarian
[29] = tested on: CCRF-CEM leukemia
[30] = tested on: SN12C renal
[31] = tested on: NCI-H23 lung
[32] = tested on: MOLT-4 leukemia
[33] = tested on: DU-145 prostate
[34] = tested on: SK-MEL-5 melanoma
[35] = tested on: NCI/ADR-RES ovarian
[36] = tested on: HL-60(TB) leukemia
[37] = tested on: IGROV1 ovarian
[38] = tested on: NCI-H226 lung
[39] = tested on: TK-10 renal
[40] = tested on: SK-MEL-2 melanoma
[41] = tested on: EKVX NSCLC
[42] = tested on: COLO 205 colon
[43] = tested on: SR leukemia
[44] = tested on: SF-268 CNS
[45] = tested on: HT29 colon
[46] = tested on: SK-OV-3 ovarian
[47] = tested on: UO-31 renal
[48] = tested on: HCC-2998 colon
[49] = tested on: 786-0 renal
[50] = tested on: T-47D breast
[51] = tested on: NCI-H522 lung
[52] = tested on: OVCAR-5 ovarian
[53] = tested on: HCT-15 colon
[54] = tested on: SNB-75 CNS
[55] = tested on: SNB-19 CNS
[56] = tested on: HOP-92 NSCLC
[57] = tested on: LOX IMVI melanoma
[58] = tested on: NCI-H460 lung

## O=C(O[C@H]1CN[C@H](C#Cc2cc3ncnc(Nc4ccc5c(ccn5Cc5cc(F)ccc5F)c4)c3s2)C1)N1CCOCC1
[1]
  GI50: 0.187 µM
  TGI: > 21.7 µM
[2]
  GI50: 0.575 µM
  TGI: > 25 µM
[3]
  GI50: 3.07 µM
  TGI: 10.1 µM
[4]
  GI50: 4.65 µM
  TGI: 13.7 µM
[5]
  GI50: 5.16 µM
  TGI: 15.1 µM
[6]
  GI50: 4.32 µM
  TGI: 11 µM
[7]
  GI50: 3.19 µM
  TGI: 7.44 µM
[8]
  GI50: 4.06 µM
  TGI: 9.41 µM
[9]
  GI50: 4.13 µM
  TGI: > 14.5 µM
[10]
  GI50: 2.86 µM
  TGI: 6.55 µM
[11]
  GI50: 5.52 µM
  TGI: > 23.7 µM
[12]
  GI50: 3.42 µM
  TGI: 7.83 µM
[13]
  GI50: 4.57 µM
  TGI: 9.25 µM
[14]
  GI50: 0.413 µM
  TGI: 3.32 µM
[15]
  GI50: 0.765 µM
  TGI: 5.2 µM
[16]
  GI50: 4.06 µM
  TGI: 7.98 µM
[17]
  GI50: 4.2 µM
  TGI: 10.6 µM
[18]
  GI50: 4.1 µM
  TGI: 9.3 µM
[19]
  GI50: 6.26 µM
  TGI: 17.1 µM
[20]
  GI50: 6.02 µM
  TGI: 17.7 µM
[21]
  GI50: 3.22 µM
  TGI: 8.06 µM
[22]
  GI50: 0.488 µM
  TGI: > 25 µM
[23]
  GI50: 1.97 µM
  TGI: 9.81 µM
[24]
  GI50: 5.13 µM
  TGI: 18.2 µM
[25]
  GI50: 6.49 µM
  TGI: > 25 µM
[26]
  GI50: 4.51 µM
  TGI: 16.5 µM
[27]
  GI50: 3.61 µM
  TGI: 8.25 µM
[28]
  GI50: 4.11 µM
  TGI: 15.4 µM
[29]
  GI50: 5.59 µM
  TGI: 24.9 µM
[30]
  GI50: 2.57 µM
  TGI: 12.8 µM
[31]
  GI50: 4.25 µM
  TGI: 14.6 µM
[32]
  GI50: 6.1 µM
  TGI: > 25 µM
[33]
  GI50: 2.17 µM
  TGI: 5.52 µM
[34]
  GI50: 2.95 µM
  TGI: 6.13 µM
[35]
  GI50: 3.7 µM
  TGI: > 23.2 µM
[36]
  GI50: 3.5 µM
  TGI: 11 µM
[37]
  GI50: 1.33 µM
  TGI: > 16.7 µM
[38]
  GI50: 3.2 µM
  TGI: 9.64 µM
[39]
  GI50: 0.0724 µM
  TGI: 1.93 µM
[40]
  GI50: 5.35 µM
  TGI: 12.7 µM
[41]
  GI50: 0.119 µM
  TGI: 2.04 µM
[42]
  GI50: 3.16 µM
  TGI: 6.86 µM
[43]
  GI50: 6.28 µM
  TGI: 24.5 µM
[44]
  GI50: 3.23 µM
  TGI: 8.8 µM
[45]
  GI50: 3.86 µM
  TGI: 8.97 µM
[46]
  GI50: 0.0183 µM
  TGI: 0.106 µM
[47]
  GI50: 0.339 µM
  TGI: 7.05 µM
[48]
  GI50: 3.56 µM
  TGI: 7.35 µM
[49]
  GI50: 4.55 µM
  TGI: 12.6 µM
[50]
  GI50: 0.206 µM
  TGI: 7.1 µM
[51]
  GI50: 0.147 µM
  TGI: 4.1 µM
[52]
  GI50: 1.07 µM
  TGI: 11.1 µM
[53]
  GI50: 3.55 µM
  TGI: 17.5 µM
[54]
  GI50: 0.853 µM
  TGI: 6.21 µM
[55]
  GI50: 4.46 µM
  TGI: > 25 µM
[56]
  GI50: 0.357 µM
  TGI: 3.9 µM
[57]
  GI50: 3.5 µM
  TGI: 9.28 µM
[58]
  GI50: 5.17 µM
  TGI: 14 µM
